Experimental data as given in ChEMBL document CHEMBL1151026, “Synthesis and pharmacological evaluation of the enantiomers of the dopamine autoreceptor agonist PD 135385” (Bioorg Med Chem Lett, 1993).

Tests used:
[1] = target: T1, D(2) dopamine receptor (Rattus norvegicus, UniProt P61169); test: Displacement of [3H]spiperone from rat striatal Dopamine receptor D2
[2] = test system: Mus musculus; test: Tested for locomotor activity (LMA) in mouse by intraperitoneal administration; format: functional; conditions: ip
[3] = test system: Rattus norvegicus; test: Tested for locomotor activity (LMA) in rat by peroral administration; format: functional; conditions: po
[4] = test system: Rattus norvegicus; test: Percent reversal of the increase inDOPA levels in the striatum of GBL-treated rats at 10 mg/kg administered intraperitoneally; format: functional; conditions: route intraperitoneal; for Reversal % at 10 mg/kg: ip
[5] = test system: Mus musculus; test: Tested for locomotor activity (LMA) in mouse by intraperitoneal administration for the dose >30 mg/kg; format: functional; conditions: ip
[6] = test system: Rattus norvegicus; test: Tested for locomotor activity (LMA) in rat by peroral administration for the dose for the dose of >10 mg/kg; format: functional; conditions: po
[7] = test system: Rattus norvegicus; test: Tested for locomotor activity in rat by subcutaneous administration; conditions: sc
[8] = test system: Rattus norvegicus; test: Percent reversal of the increase inDOPA levels in the striatum of GBL-treated rats when administered intraperitoneally was determined; format: functional; conditions: ip
[9] = test system: Rattus norvegicus; test: Tested for inhibition of dopamine neuronal firing in rat at the dose of 0.25 mg/Kg by intraperitoneal administration; format: functional; conditions: ip
[10] = test system: Rattus norvegicus; test: Tested for % rats with stereotypy at the dose of 0.3 mg/Kg subcutaneous administration; format: functional
[11] = test system: Rattus norvegicus; test: Tested for locomotor activity in rat by peroral administration; format: functional; conditions: po
[12] = target: D(1A) dopamine receptor (Rattus norvegicus, UniProt P18901); test: In vitro antagonist binding affinity was determined by displacing the [3H]-SCH- in rat striatal Dopamine receptor D1
Chain of D(1A) dopamine receptor (P18901 whole entry): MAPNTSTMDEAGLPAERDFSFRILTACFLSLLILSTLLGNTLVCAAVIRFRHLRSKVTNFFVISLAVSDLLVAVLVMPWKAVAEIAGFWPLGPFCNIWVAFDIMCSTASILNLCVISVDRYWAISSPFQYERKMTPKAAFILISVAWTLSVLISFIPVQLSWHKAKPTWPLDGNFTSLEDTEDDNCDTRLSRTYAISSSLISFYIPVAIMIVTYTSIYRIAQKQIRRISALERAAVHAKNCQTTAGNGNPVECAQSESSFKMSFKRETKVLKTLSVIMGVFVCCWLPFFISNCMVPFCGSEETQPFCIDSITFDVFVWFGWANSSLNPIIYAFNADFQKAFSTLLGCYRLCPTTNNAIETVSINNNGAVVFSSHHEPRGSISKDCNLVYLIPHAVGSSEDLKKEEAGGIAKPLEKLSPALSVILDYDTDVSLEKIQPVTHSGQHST

[13] = test system: Rattus norvegicus; test: Tested for inhibition of Dopamine neuronal firing in rat at the dose of 2.5 mg/Kg by intraperitoneal administration; format: functional; conditions: ip
[14] = target: T1, D(2) dopamine receptor; test: In vitro agonist binding affinity was determined by displacing the [3H]N-propylnorapomorphine ([3H]NPA) in rat striatal Dopamine receptor D2
[15] = test system: Rattus norvegicus; test: Tested for % rats with stereotypy at the dose of 116 mg/Kg administered perorally; format: functional
[16] = test system: Rattus norvegicus; test: Tested for inhibition of dopamine neuronal firing in rat at the dose of 2.5 mg/Kg by intraperitoneal administration; format: functional; conditions: ip
[17] = test system: Rattus norvegicus; test: Tested for % rats with stereotypy at the dose of 20 mg/Kg administered perorally; format: functional
[18] = test system: Rattus norvegicus; test: Tested for % rats with stereotypy at the dose of 67 mg/Kg administered perorally; format: functional
[19] = test system: Rattus norvegicus; test: Tested for % rats with stereotypy at the dose of 61 mg/Kg administered perorally; format: functional
[20] = test system: Rattus norvegicus; test: Tested for locomotor activity in Rat by peroral administration; format: functional; conditions: po

T1 sequence (P61169 whole entry): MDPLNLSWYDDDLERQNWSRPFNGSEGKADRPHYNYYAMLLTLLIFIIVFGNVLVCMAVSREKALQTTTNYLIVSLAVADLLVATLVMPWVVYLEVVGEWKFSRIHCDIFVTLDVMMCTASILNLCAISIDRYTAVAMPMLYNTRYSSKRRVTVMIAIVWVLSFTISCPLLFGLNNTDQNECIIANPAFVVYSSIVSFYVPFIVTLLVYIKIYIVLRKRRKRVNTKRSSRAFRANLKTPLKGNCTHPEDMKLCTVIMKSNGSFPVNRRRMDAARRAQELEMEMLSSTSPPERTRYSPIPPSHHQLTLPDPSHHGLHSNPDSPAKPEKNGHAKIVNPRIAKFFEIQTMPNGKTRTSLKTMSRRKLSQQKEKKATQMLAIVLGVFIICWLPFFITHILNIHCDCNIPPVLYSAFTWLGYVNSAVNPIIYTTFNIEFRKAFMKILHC

IC50 [1] [nM]	SMILES	ED50 [2] [mg/kg]	ED50 [3] [mg/kg]	Reversal [4] [%]	ED50 [11] [mg/kg]	IC50 [12] [nM]	IC50 [14] [nM]	further results
352	C1=C(c2cccs2)CCC(N2CCN(c3ccccn3)CC2)C1 (stereo not drawn)	9.3	> 30					
	C1=C(c2ccccc2)CCC(CCN2CCN(c3ccccn3)CC2)C1 (stereo not drawn)	2.1	6.7	50				
~10000	C1=C(c2ccccc2)CCC(CN2CCN(c3ccccn3)CC2)C1 (stereo not drawn)	~30						
128	C1=C(c2ccccn2)CCC(CCN2CCN(c3ccccn3)CC2)C1 (stereo not drawn)			89				ED50 [5]: 0.4 mg/kg; ED50 [6]: ~3 mg/kg
	CN1CCc2cccc3c2[C@H]1Cc1ccc(O)c(O)c1-3 [APOMORPHINE]				> 30			ED50 [7]: 0.03 mg/kg; ED50 [8]: 0.3 mg/kg; inhibition in vivo at 0.25 mg/kg [9]: 100%; Activity [10]: 100%
1180	C1=C(c2ccccn2)CCC(N2CCN(c3ccccn3)CC2)C1 (stereo not drawn)	0.9	5.8	75				
2430	C1=C(c2cccs2)CCC(CN2CCN(c3ccccn3)CC2)C1 (stereo not drawn)	> 30						
436	C1=C(c2cccs2)CCC(CCN2CCN(c3ccccn3)CC2)C1 (stereo not drawn)	8.4	13	46				
600	C1=C(c2ccccc2)CCC(N2CCN(c3ccccn3)CC2)C1 (stereo not drawn)	1	> 30					

SMILES	IC50 [1] [nM]	ED50 [2] [mg/kg]	ED50 [3] [mg/kg]	Reversal [4] [%]	ED50 [11] [mg/kg]	IC50 [12] [nM]	IC50 [14] [nM]	further results
C1=C(c2ccccc2)CC[C@@H](CCN2CCN(c3ccccn3)CC2)C1	545				9.1	> 6000	64	Reversal % at 10 mg/kg [4]: 57%; inhibition in vivo at 2.5 mg/kg [13]: 58%; Activity [15]: 60%
CN1CCC=C2c3nc(N)sc3CCC21 (racemic)	2920				0.8	> 10000	202	inhibition in vivo at 2.5 mg/kg [16]: 99%; Activity [17]: 0%; ED50 [8]: 0.7 mg/kg
C1=C(c2ccccc2)CCC(CCN2CCN(c3ccccn3)CC2)C1 (racemic)	412				6.7	> 6000	88	inhibition in vivo at 2.5 mg/kg [16]: 41%; Activity [18]: 0%; Reversal % at 10 mg/kg [4]: 50%
C1=C(c2ccccc2)CC[C@H](CCN2CCN(c3ccccn3)CC2)C1	704					> 6000	82	inhibition in vivo at 2.5 mg/kg [16]: 38%; Activity [19]: 0%; ED50 [20]: 6.1 mg/kg; Reversal % at 10 mg/kg [4]: 49%
